Experiment [1] has as its system A431cells (human epidermoid carcinoma). The experiment in a line: In vitro tumor cell proliferation assay (Cell Titer-Glo luminescent cell viability), A431 cells. The note with it: A-431, 72 h, 72 hours drug exposure, 10% Fetal Bovine Serum, ATP luminescence readout, read-out: IC50 (50% inhibition of cell proliferation). The class given is cell-based. The gist of the method: (§1)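 ATP luminescence (CellTiter-Glo) measured proliferation after 72 h compound exposure at 37 °C, giving IC50 values. Serial dilutions spanning 64 pM–100 μM in 0.1% DMSO were applied one day after plating 2.5×10^3 cells/well in RPMI plus 10% fetal bovine serum.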

Experiment [2] has as its system BT474 (human breast carcinoma). The experiment in a line: In vitro tumor cell proliferation assay (Cell Titer-Glo luminescent cell viability), BT474 cells. The class given is cell-based. The note with it: BT-474, 72 hours drug exposure, 10% Fetal Bovine Serum, ATP luminescence readout, read-out: IC50 (50% inhibition of cell proliferation). The gist of the method:
as §1
A general note: In ATP-based viability assays light output follows the ATP content of the culture.

In the case of `CCOC(=O)CC1CCc2c(sc3ncnc(Nc4ccc(Oc5ccc(C)nc5)c(C)c4)c23)C1` (stereo not shown) [Example 213, ethyl [4-({3-methyl-4-[(6-methylpyridin-3-yl)oxy]phenyl}amino)-5,6,7,8-tetrahydro[1]benzothieno[2,3-d]pyrimidin-7-yl]acetate], the IC50 in experiment [1] and in experiment [2] was below 50 µM each time.
Consider `OCCNCCC1CCc2c(sc3ncnc(Nc4ccc5c(cnn5Cc5ccccc5)c4)c23)C1` (stereo not shown) [Example 206, 2-[(2-{4-[(1-benzyl-1H-indazol-5-yl)amino]-5,6,7,8-tetrahydro[1]benzothieno[2,3-d]pyrimidin-7-yl}ethyl)amino]ethanol], for which the IC50 in experiment [1] and in experiment [2] was below 5 µM throughout.
Take `OCCC1CCc2c(sc3ncnc(Nc4ccc(OCc5ccccn5)c(Cl)c4)c23)C1` (stereo not shown) [Example 174, 2-{4-[3-Chloro-4-(pyridin-2-ylmethoxy)-phenylamino]-5,6,7,8-tetrahydro-benzo[4,5]thieno[2,3-d]pyrimidin-7-yl}-ethanol]: the IC50 in experiment [1] is below 50 µM; in experiment [2], below 5 µM.
Taken in the same sequence, the figures for `Cc1ccc(Oc2ccc(Nc3ncnc4sc5c(c34)CCC(CCN3CCC(O)C3)C5)cc2C)cn1` (stereo not shown) [Example 233, 1-{2-[4-({3-methyl-4-[(6-methylpyridin-3-yl)oxy]phenyl}amino)-5,6,7,8-tetrahydro[1]benzothieno[2,3-d]pyrimidin-7-yl]ethyl}pyrrolidin-3-ol] were below 50 µM and below 5 µM.
Taken in the same sequence, the figures for `CCOC(=O)CC1CCc2c(sc3ncnc(Nc4ccc5c(cnn5Cc5ccccc5)c4)c23)C1` (stereo not shown) [Example 204, ethyl {4-[(1-benzyl-1H-indazol-5-yl)amino]-5,6,7,8-tetrahydro[1]benzothieno[2,3-d]pyrimidin-7-yl}acetate] were below 50 µM and below 5 µM.
Taken in the same sequence, the figures for `CNCCC1CCc2c(sc3ncnc(Nc4ccc(Oc5ccc(C)nc5)c(C)c4)c23)C1` (stereo not shown) [Example 232, 7-[2-(methylamino)ethyl]-N-{3-methyl-4-[(6-methylpyridin-3-yl)oxy]phenyl}-5,6,7,8-tetrahydro[1]benzothieno[2,3-d]pyrimidin-4-amine] were below 50 µM and below 5 µM.
With `COCCCNCCC1CCc2c(sc3ncnc(Nc4ccc(OCc5ccccn5)c(Cl)c4)c23)C1` (stereo not shown) [Example 195, N-[3-chloro-4-(pyridin-2-ylmethoxy)phenyl]-7-{2-[(3-methoxypropyl)amino]ethyl}-5,6,7,8-tetrahydro[1]benzothieno[2,3-d]pyrimidin-4-amine], the IC50 in experiment [1] and in experiment [2] was below 5 µM each time.
Turning to `O=C(CC1CCc2c(sc3ncnc(Nc4cccc(Br)c4)c23)C1)N1CCN(Cc2ccncc2)CC1` (stereo not shown) [Example 103, N-(3-bromophenyl)-7-{2-oxo-2-[4-(4-pyridinylmethyl)-1-piperazinyl]ethyl}-5,6,7,8-tetrahydro[1]benzothieno[2,3-d]pyrimidin-4-amine], the IC50 is below 50 µM in experiment [1] and below 5 µM in experiment [2].
Taken in the same sequence, the figures for `Cc1ccc(Oc2ccc(Nc3ncnc4sc5c(c34)CCC(CCNCCO)C5)cc2C)cn1` (stereo not shown) [Example 217, 2-({2-[4-({3-methyl-4-[(6-methylpyridin-3-yl)oxy]phenyl}amino)-5,6,7,8-tetrahydro[1]benzothieno[2,3-d]pyrimidin-7-yl]ethyl}amino)ethanol] were below 50 µM and below 5 µM.
In the same order, the values of `CNCCC1CCc2c(sc3ncnc(Nc4ccc(OCc5cccc(F)c5)c(Cl)c4)c23)C1` (stereo not shown) [Example 169, N-{3-chloro-4-[(3-fluorobenzyl)oxy]phenyl}-7-[2-(methylamino)ethyl]-5,6,7,8-tetrahydro[1]benzothieno[2,3-d]pyrimidin-4-amine] are below 5 µM and below 5 µM.
For `COc1ccc(NCCC2CCc3c(sc4ncnc(Nc5ccc(F)c(Cl)c5)c34)C2)cc1` (stereo not shown) [Example 76, N-(3-chloro-4-fluorophenyl)-7-{2-[(4-methoxyphenyl)amino]ethyl}-5,6,7,8-tetrahydro[1]benzothieno[2,3-d]pyrimidin-4-amine], the IC50 in experiment [1] and in experiment [2] was below 50 µM each time.
Consider `Fc1cccc(COc2ccc(Nc3ncnc4sc5c(c34)CCC(CCN3CCOCC3)C5)cc2Cl)c1` (stereo not shown) [Example 139, N-{3-chloro-4-[(3-fluorobenzyl)oxy]phenyl}-7-(2-morpholin-4-ylethyl)-5,6,7,8-tetrahydro[1]benzothieno[2,3-d]pyrimidin-4-amine], for which the IC50 in experiment [1] and in experiment [2] was below 5 µM in each case.
With `CCOC(=O)C1CCc2c(sc3ncnc(Nc4ccc(OCc5ccccc5)cc4)c23)C1` (stereo not shown) [Example 32, Ethyl 4-{[4-(benzyloxy)phenyl]amino}-5,6,7,8-tetrahydro[1]benzothieno[2,3-d]pyrimidine-7-carboxylate], the IC50 in experiment [1] and in experiment [2] was below 50 µM each time.
As to `CN(C)[C@@H]1CCN(C(=O)C2CCc3c(sc4ncnc(Nc5cccc(Br)c5)c34)C2)C1` (stereo partly drawn) [Example 60, N-(3-bromophenyl)-7-{[(3R)-3-(dimethylamino)-1-pyrrolidinyl]carbonyl}-5,6,7,8-tetrahydro[1]benzothieno[2,3-d]pyrimidin-4-amine], the IC50 in experiment [1] and in experiment [2] was below 5 µM in each case.
For the molecule `Brc1cccc(Nc2ncnc3sc4c(c23)CCC(CCN2CCCC2)C4)c1` (stereo not shown) [Example 85, N-(3-bromophenyl)-7-[2-(1-pyrrolidinyl)ethyl]-5,6,7,8-tetrahydro[1]benzothieno[2,3-d]pyrimidin-4-amine], the IC50 in experiment [1] and in experiment [2] was below 5 µM each time.
As for `CS(=O)(=O)OCCC1CCc2c(sc3ncnc(Nc4ccc(OCc5ccccn5)c(Cl)c4)c23)C1` (stereo not shown) [Example 175, Methanesulfonic acid 2-{4-[3-chloro-4-(pyridin-2-ylmethoxy)-phenylamino]-5,6,7,8-tetrahydro-benzo[4,5]thieno[2,3-d]pyrimidin-7-yl}-ethyl ester], the IC50 in experiment [1] and in experiment [2] was below 5 µM throughout.
On to `Cc1ccc(Oc2ccc(Nc3ncnc4sc5c(c34)CCC(CCN(C)CCO)C5)cc2C)cn1` (stereo not shown) [Example 222, 2-(methyl{2-(4-({3-methyl-4-[(6-methylpyridin-3-yl)oxy]phenyl}amino)-5,6,7,8-tetrahydro[1]benzothieno[2,3-d]pyrimidin-7-yl]ethyl}amino)ethanol], for which the IC50 in experiment [1] and in experiment [2] was below 5 µM throughout.
Consider `Cc1ccc(Oc2ccc(Nc3ncnc4sc5c(c34)CCC(CCN3CCOCC3)C5)cc2C)cn1` (stereo not shown) [Example 225, N-{3-methyl-4-[(6-methylpyridin-3-yl)oxy]phenyl}-7-(2-morpholin-4-ylethyl)-5,6,7,8-tetrahydro[1]benzothieno[2,3-d]pyrimidin-4-amine], for which the IC50 is below 50 µM in experiment [1] and below 5 µM in experiment [2].
Taken in the same sequence, the figures for `COCCNCCC1CCc2c(sc3ncnc(Nc4ccc(OCc5ccccn5)c(Cl)c4)c23)C1` (stereo not shown) [Example 176, N-[3-chloro-4-(pyridin-2-ylmethoxy)phenyl]-7-{2-[(2-methoxyethyl)amino]ethyl}-5,6,7,8-tetrahydro[1]benzothieno[2,3-d]pyrimidin-4-amine] were below 5 µM and below 5 µM.
In the case of `CN(C)[C@@H]1CCN(CCC2CCc3c(sc4ncnc(Nc5ccc(OCc6ccccn6)c(Cl)c5)c34)C2)C1` (stereo partly drawn) [Example 181, N-[3-chloro-4-(pyridin-2-ylmethoxy)phenyl]-7-{2-[(3R)-3-(dimethylamino)pyrrolidin-1-yl]ethyl}-5,6,7,8-tetrahydro[1]benzothieno[2,3-d]pyrimidin-4-amine], the IC50 in experiment [1] is below 50 µM; in experiment [2] it was below 5 µM.
For the molecule `Cc1ccc(Oc2ccc(Nc3ncnc4sc5c(c34)CCC(CCN3CCN(C)CC3)C5)cc2C)cn1` (stereo not shown) [Example 224, N-{3-methyl-4-[(6-methylpyridin-3-yl)oxy]phenyl}-7-[2-(4-methylpiperazin-1-yl)ethyl]-5,6,7,8-tetrahydro[1]benzothieno[2,3-d]pyrimidin-4-amine], the IC50 in experiment [1] and in experiment [2] was below 5 µM throughout.
As for `Cc1ccc(Oc2ccc(Nc3ncnc4sc5c(c34)CCC(CCN3CCCC3)C5)cc2C)cn1` (stereo not shown) [Example 221, N-{3-methyl-4-[(6-methylpyridin-3-yl)oxy]phenyl}-7-(2-pyrrolidin-1-ylethyl)-5,6,7,8-tetrahydro[1]benzothieno[2,3-d]pyrimidin-4-amine], the IC50 in experiment [1] and in experiment [2] was below 5 µM each time.
Consider `Fc1ccc(Nc2ncnc3sc4c(c23)CCC(CCN2CCCC2)C4)cc1Cl` (stereo not shown) [Example 74, N-(3-chloro-4-fluorophenyl)-7-[2-(1-pyrrolidinyl)ethyl]-5,6,7,8-tetrahydro[1]benzothieno[2,3-d]pyrimidin-4-amine], for which the IC50 in experiment [1] and in experiment [2] was below 5 µM throughout.
Take `O=C(O)C1CCc2c(sc3ncnc(Nc4cccc(Br)c4)c23)C1` (stereo not shown) [Example 1, 4-[(3-bromophenyl)amino]-5,6,7,8-tetrahydro[1]benzothieno[2,3-d]pyrimidine-7-carboxylic acid]: the IC50 in experiment [1] and in experiment [2] was below 50 µM each time.
As to `CC(C)(O)CC1CCc2c(sc3ncnc(Nc4cccc(Br)c4)c23)C1` (stereo not shown) [Example 95, 1-{4-[(3-bromophenyl)amino]-5,6,7,8-tetrahydro[1]benzothieno[2,3-d]pyrimidin-7-yl}-2-methyl-2-propanol], the results for the IC50 in experiment [1] and in experiment [2] were below 50 µM and below 5 µM, respectively.
For the molecule `COCCN(C)C(=O)C1CCc2c(sc3ncnc(Nc4ccc(F)c(Cl)c4)c23)C1` (stereo not shown) [Example 8, 4-[(3-chloro-4-fluorophenyl)amino]-N-(2-methoxyethyl)-N-methyl-5,6,7,8-tetrahydro[1]benzothieno[2,3-d]pyrimidine-7-carboxamide], the IC50 in experiment [1] and in experiment [2] was below 50 µM throughout.
